Patent US7576188B2, “Antitumoral treatments” (Pharma Mar, S.A.U., priority 2004, dated 2009)
Like-named read-outs stand apart in the source and are kept apart here. Numbered stars: 1 amine (or outer) side, 2 acyl side, 3 side chain; on linkers, the order of the positions; unused ones are H or OH. Bridge positions count the residues as written; N and C are the ends. Square brackets hold non-standard residues; d marks the D form. Peptide text beside a SMILES is read from it. * marks the point of attachment. X1 = CC[C@H](C)[C@@H](N[*:1])[C@@H](O)CC(=O)O[C@H](C(=O)[C@H](C)C(=O)[*:2])C(C)C; NMeY = CN[C@@H](Cc1ccc(O)cc1)C(=O)O; dNMeL = CN[C@H](CC(C)C)C(=O)O; Pyruvoyl = CC(=O)C(=O)*

Legend:
SKI-DLCL cells [1] = conditions: for IC50: 96 hours
Description: (§3) Cell viability is measured by XTT assay in an automated plate reader.
(§4) All the citotoxicity studies were performed by using XTT or MTS.
(§5) Data was obtained after cell incubation for 96 hours and using XTT asay. The results represent means of three different experiments.

SKI-DLCL cells [2] = assay: cells; conditions: 96 h
Description: as §3, §4, §5

CCRF-CEM cells = assay: XTT/MTS cytotoxicity, single agents and combinations, CCRF-CEM; conditions: for Viability (% of control): single agent at its IC50 dose
Description: as §3, §4, §5

[3] = system: K562, CEM and SKI-DLCL cell lines; assay: Combination of IC20 aplidine with a dose range of additional drug (Table 1); type: cell-based
Description: Drug combination studies were carried out on established cell lines rather than primary cells. We studied three cell lines, viz. K562 as a model for acute myeloid leukemia, CEM representing acute lymphocytic leukemia and SKI-DLCL representing diffuse large cell lymphoma. Combination studies with IC20 and IC 50 dose of aplidine with a dose range of methotrexate, cytosine arabinoside and doxorubicin were tested to determine if aplidine could potentiate the effect of these drugs.

K562 cells [4] = system: K562 cells
Description: as §3
(§6) Chou-Talalay analysis was used to analyze the drug combinations.
(§7) All the citotoxicity studies were performed by using XTT or MTS. We first determined the IC50 dose of these drugs in SKI-DLCL, CCRF-CEM and K562 cell lines. We investigated drug combinations using IC50(Aplidine):IC50(DrugX) fixed ratio.

[5] = Determination of maximum tolerated dose in SCID mice; type: in vivo, C.B.-17 scid/scid (SCID) mice; conditions: total dose given in five daily doses
From the text: We have used an in vivo model of human lymphoma in SCID mice for this purpose. Specifically, we have used CCRF-CEMS cells and CB.17 scid/scid mice. We have experience with this model and have evaluated drug treatments using this xenograft (Lacerda J. F. et al. Blood 85 (10): 2675-2679 (1995)).

[6] = system: chronic lymphocytic leukemia (CLL) cells; assay: Viability of fresh primary CLL cells cultured with aplidine; type: cell-based, human
Description: (§1) Aplidine was tested against various primary cells from patients with hematologic malignancies. The cells used were: • fresh cells obtained from six chronic lymphocytic leukemia patients • primary cell from a patient with preB-ALL (DM4)
(§2) Patient samples were obtained with prior consent and CLL cells were isolated by density gradient centrifugation over histopaque. The media used was RPMI supplemented with 10% autologous serum and L-glutamine. The cultures were incubated with 10 nM aplidine and cell viability was measured days 3, 7,11 and 18 and compared with viability of untreated cells and STI 571 (0.5 mM).

ALL-MOLT4 cells = conditions: cited from earlier work
[7] = at maximum tolerated doses, clinical Phase I; except for mild lymphopenia; cited from earlier work
[8] = solubilised, heat and light stress; cited from earlier work
K562 cells [9] = assay: XTT/MTS cytotoxicity, single agents and combinations, K562; conditions: for Viability (% of control): K562, single agent at its IC50 dose
Description: as §3, §6, §7

[10] = system: AML and ALL samples from pediatric patients; conditions: de novo or relapsed ALL and AML; cited from earlier work
preB-ALL (DM4) cells = assay: Viability of primary preB-ALL (DM4) cells cultured with aplidine; type: cell-based, human
Description: as §1, §2

CEM-T leukemic cells = assay: In vivo antitumor effect in SCID mice xenograft model; conditions: AraC alone at 50 mg/kg, intra-peritoneally
Description: SCID mice were inoculated subcutaneously in the right flank with 10^7 CEM-T leukemic cells. They were observed twice weekly for tumor formation at the site of inoculation. After establishment of palpable tumor, alidine was injected as single agent and in combination with several doses of AraC to determine the antitumor effect. Mice were randomized to receive alidine alone at doses of 0.75 mg/kg and 1 mg/kg, AraC alone at 50 mg/kg, or combination of Aplidine and AraC for all dose combinations. […] All drugs were administered intra-peritoneally, and tumor size was compared to a control group of mice not receiving any treatment and for combination groups, compared to tumor sizes with single agent treatment.

[11] = SKI-DLCL, single agent at its IC50 dose
[12] = read-out: IC50 dose, single agent, 96 hours
[13] = Homo sapiens, K562, No Aplidine
[14] = Homo sapiens, K562, with IC20 Aplidine (0.5 nM)
[15] = read-out: IC50 dose, single agent, SKI-DLCL
[16] = Homo sapiens, K562, 96 h, read-out: IC50 dose, single agent, K562, 96 hours

CC[C@]1(O)C[C@@H]2CN(CCc3c([nH]c4ccccc34)[C@@](C(=O)OC)(c3cc4c(cc3OC)N(C)[C@H]3[C@@](O)(C(=O)OC)[C@H](OC(C)=O)[C@]5(CC)C=CCN6CC[C@]43[C@@H]65)C2)C1 [Vinb, vinblastine]
Viability (% of control) (SKI-DLCL cells [1]; [11]): 50 % of control | IC50 (SKI-DLCL cells [2]; read-out: IC50 dose): 4 nM

CN(Cc1cnc2nc(N)nc(N)c2n1)c1ccc(C(=O)N[C@@H](CCC(=O)O)C(=O)O)cc1 [MTX, methotrexate]
IC50 (CCRF-CEM cells; [12]): 10 nM | Viability (% of control) (CCRF-CEM cells): 50 % of control | IC50 [3, 13]: 5 nM | IC50 [3, 14]: 0.5 nM

C[C@H]1C[C@@H]2[C@H]([C@@H](O)C[C@@]3(C)[C@H]2CC[C@]3(O)C(=O)CO)[C@@]2(C)C=CC(=O)C=C12 [Metpred, methylprednisolone]
Viability (% of control) (SKI-DLCL cells [1]; [11]): 51 % of control | IC50 (SKI-DLCL cells [2]; read-out: IC50 dose): 160 nM

CC[C@H](C)[C@H]1NC(=O)[C@@H](NC(=O)[C@@H](CC(C)C)N(C)C(=O)[C@@H]2CCCN2C(=O)C(C)=O)[C@@H](C)OC(=O)[C@H](Cc2ccc(OC)cc2)N(C)C(=O)[C@@H]2CCCN2C(=O)[C@H](CC(C)C)NC(=O)[C@@H](C)C(=O)[C@H](C(C)C)OC(=O)C[C@@H]1O [aplidine, Dehydrodidemnin B] (Pyruvoyl-P[dNMeL]T[X1]LP[NMeY](Me); ester 3-C)
Viability (% of control) (K562 cells [4]): 50 % of control | maximum dose that can be tolerated (MTD) [5]: 1 mg/kg/week | growth of CLL cells in culture ([6]; FIG. 1): inhibits growth | IC50 ([6]; Homo sapiens, CLL cell, 264 h, primary CLL samples, 11 day exposure): 10 nM | VEGF secretion (ALL-MOLT4 cells): block VEGF secretion | Viability (% of control) (SKI-DLCL cells [1]): 50 % of control | IC50 (SKI-DLCL cells [1]; [15]): 0.5 nM | myelotoxicity [7]: not myelotoxic | degradation under stress testing [8]: substantial degradation | IC50 (K562 cells [9]; [16]): 0.5 to 1 nM | IC50 (K562 cells [9]; read-out: IC50 dose, single agent, K562, 96 hours, listed as APL): 1 nM | IC50 (SKI-DLCL cells [2]; read-out: IC50 dose, single agent, SKI-DLCL, 96 hours): 0.5 to 1 nM | IC50 (CCRF-CEM cells; [12]): 0.5 nM | concentration with in vitro cytotoxic activity [10]: 5 nM | inhibition of preB-ALL cells in culture (preB-ALL (DM4) cells; FIG. 2): potent inhibitor | IC50 (preB-ALL (DM4) cells; Homo sapiens, 72 h, DM4 line, 3 day exposure): 10 nM

Nc1ccn([C@@H]2O[C@H](CO)[C@@H](O)[C@@H]2O)c(=O)n1 [AraC, cytosine arabinoside]
Viability (% of control) (SKI-DLCL cells [1]; [11]): 50 % of control | IC50 (SKI-DLCL cells [1]; read-out: IC50 dose of AraC, SKI-DLCL, in combination with IC20 (APL), XTT): 1.6 nM | IC50 (SKI-DLCL cells [1]; [15]): 30 nM | Viability (% of control) (K562 cells [9]): 50 % of control | IC50 (K562 cells [9]; read-out: IC50 dose, single agent, K562, 96 hours): 30 nM | in vivo antitumor effect (tumor growth) (CEM-T leukemic cells): tumor growth was inhibited but no tumor regression occurred | IC50 (CCRF-CEM cells; read-out: IC50 dose of AraC, in combination with IC20 (APL), 96 hours, XTT): 0.8 nM | IC50 (CCRF-CEM cells; [12]): 10 nM | Viability (% of control) (CCRF-CEM cells): 56.4 % of control | IC50 ([3]; No Aplidine): 30 nM | IC50 ([3]; with IC20 Aplidine (0.5 nM)): 6 nM

O=C1c2c(O)ccc(O)c2C(=O)c2c(NCCNCCO)ccc(NCCNCCO)c21 [Mitox, mitoxantrone]
Viability (% of control) (SKI-DLCL cells [1]; [11]): 50 % of control | IC50 (K562 cells [9]; [16]): 7.5 nM | Viability (% of control) (K562 cells [9]): 50.7 % of control | IC50 (SKI-DLCL cells [2]; read-out: IC50 dose): 5 nM | IC50 (CCRF-CEM cells; [12]): 30 nM | Viability (% of control) (CCRF-CEM cells): 56 % of control

COc1cccc2c1C(=O)c1c(O)c3c(c(O)c1C2=O)C[C@@](O)(C(=O)CO)C[C@@H]3O[C@H]1C[C@H](N)[C@H](O)[C@H](C)O1 [Dox, doxorubicin]
Viability (% of control) (SKI-DLCL cells [1]; [11]): 50 % of control | IC50 (SKI-DLCL cells [2]; read-out: IC50 dose): 5 nM | IC50 [3, 13]: 18 nM | IC50 [3, 14]: 1 nM
